Measured values: patent US12252524B2, “GIP/GLP1 co-agonist compounds” (Eli Lilly and Company, priority 2018, dated 2025)
pEC50, pKi: −log10 of the molar value. Where two headings read alike, the source gives them in different places. Numbered stars: 1 amine (or outer) side, 2 acyl side, 3 side chain; on linkers, the order of the positions; unused ones are H or OH. Square brackets hold non-standard residues; d marks the D form. Side chains are listed from the residue outwards. Peptide text beside a SMILES is read from it. * marks the point of attachment. C18 diacid = O=C(O)CCCCCCCCCCCCCCCCC(=O)*; γGlu = O=C(O)[C@H](CCC(=O)[*:2])N[*:1]; αMeF = C[C@](N)(Cc1ccccc1)C(=O)O; αMeL = CC(C)C[C@](C)(N)C(=O)O; AEEA = NCCOCCOCC(=O)O; Aib = CC(C)(N)C(=O)O

Legend:
[1] = biological target: T1, human Gcg receptor (Homo sapiens, UniProt P47871); assay: [125I]-Glucagon binding (SPA), human Gcg receptor; conditions: for Ki: read-out: hGLcgR Ki, nM (SEM, n)
T1 construct: expressed in transfected cells; crude membranes
In short: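 Cell pellets were lysed in hypotonic Tris buffer, pH 7.5, homogenized, and spun at low then high speed to give crude membranes. Ki was derived from the fitted IC50.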

[2] = biological target: T2, human GIP receptor (Homo sapiens, UniProt P48546); assay: [125I]-GIP binding (SPA), human GIP receptor; conditions: for Ki: read-out: hGIPR Ki, nM (SEM, n)
T2 construct: expressed in transfected cells; crude membranes
T2 sequence (P48546 22-466): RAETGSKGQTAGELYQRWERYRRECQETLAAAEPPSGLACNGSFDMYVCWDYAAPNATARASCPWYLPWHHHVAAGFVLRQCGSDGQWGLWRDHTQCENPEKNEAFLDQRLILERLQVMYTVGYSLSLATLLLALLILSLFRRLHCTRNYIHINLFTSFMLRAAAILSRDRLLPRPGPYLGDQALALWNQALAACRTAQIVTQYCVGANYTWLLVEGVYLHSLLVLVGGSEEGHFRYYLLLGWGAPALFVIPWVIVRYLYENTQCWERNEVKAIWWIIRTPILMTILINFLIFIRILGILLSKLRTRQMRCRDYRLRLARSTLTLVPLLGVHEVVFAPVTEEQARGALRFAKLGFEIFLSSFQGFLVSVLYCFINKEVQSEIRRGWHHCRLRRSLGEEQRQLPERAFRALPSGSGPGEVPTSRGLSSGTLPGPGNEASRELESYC

[3] = biological target: human GLP-1 receptor (GLP-1R) (Homo sapiens, UniProt P43220); assay: cAMP pharmacological functional assay in presence of casein, hGLP-1R; assay type: cell-based; conditions: for EC50: HEK293 cells expressing hGLP-1R, 0.1% Casein, geometric mean, read-out: hGLP1R cAMP Rel EC50 nM (SEM, n)
[4] = biological target: T3, gastric inhibitory peptide receptor (GIPR) (Homo sapiens, UniProt P48546); assay: cAMP pharmacological functional assay in presence of casein, hGIPR; assay type: cell-based; conditions: for EC50: HEK293 cells expressing hGIPR, 0.1% Casein, geometric mean, read-out: hGIPR cAMP Rel EC50 nM (SEM, n)
T3 sequence (P48546 22-466): T2 sequence (P48546 22-466)

[5] = biological target: T4, human GLP-1R (Homo sapiens, UniProt P43220); assay: [125I]-GLP-1 binding (SPA), human GLP-1 receptor; parameters: expressed in transfected cells; crude membranes; conditions: for Ki: read-out: hGLP1R Ki, (nM) (SEM, n)
In short: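 Frozen cell pellets are lysed on ice in hypotonic Tris buffer, pH 7.5, homogenized, and centrifuged to a membrane pellet resuspended at about 1 to 3 mg/mL. Binding is then measured in HEPES-based buffer at pH 7.4, and curves are fitted to give IC50 and Ki.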

[6] = biological target: T4, human GLP-1R; assay: GLP-1R HEK293 cell membrane [35S]GTPγS binding assay; assay type: biochemical; parameters: expressed in transfected cells; host or cells: HEK293 cells expressing human GLP-1R; membranes; conditions: for EC50: HEK293 cell membranes expressing human GLP-1R, [35S]GTPγS binding, read-out: hGLP1R GTPgS Rel EC50 nM (SEM, n)
In short: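 Membranes from HEK293 cells expressing the receptor incubated with peptide and […] [35S]GTPγS in HEPES pH 7.4 buffer with NaCl, MgCl2, saponin and BSA, 30 min at room temperature. Gαs-bound label captured by anti-Gαs antibody/SPA beads and counted; EC50 from four-parameter logistic fit.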

T4 sequence (P43220 24-463): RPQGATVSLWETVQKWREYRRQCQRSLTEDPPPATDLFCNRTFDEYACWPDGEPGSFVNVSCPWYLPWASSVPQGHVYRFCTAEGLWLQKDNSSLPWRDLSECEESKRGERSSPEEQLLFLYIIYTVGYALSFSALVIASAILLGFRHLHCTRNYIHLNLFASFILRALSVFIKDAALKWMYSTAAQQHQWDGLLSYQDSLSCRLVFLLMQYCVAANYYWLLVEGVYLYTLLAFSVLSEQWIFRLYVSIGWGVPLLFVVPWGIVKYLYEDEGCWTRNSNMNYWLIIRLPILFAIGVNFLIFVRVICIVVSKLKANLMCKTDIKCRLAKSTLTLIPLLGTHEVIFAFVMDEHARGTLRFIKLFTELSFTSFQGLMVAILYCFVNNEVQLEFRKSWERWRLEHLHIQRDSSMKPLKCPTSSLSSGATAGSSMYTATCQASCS
human GLP-1 receptor (GLP-1R), sequence (P43220 24-463): as above
T1 sequence (P47871 26-477): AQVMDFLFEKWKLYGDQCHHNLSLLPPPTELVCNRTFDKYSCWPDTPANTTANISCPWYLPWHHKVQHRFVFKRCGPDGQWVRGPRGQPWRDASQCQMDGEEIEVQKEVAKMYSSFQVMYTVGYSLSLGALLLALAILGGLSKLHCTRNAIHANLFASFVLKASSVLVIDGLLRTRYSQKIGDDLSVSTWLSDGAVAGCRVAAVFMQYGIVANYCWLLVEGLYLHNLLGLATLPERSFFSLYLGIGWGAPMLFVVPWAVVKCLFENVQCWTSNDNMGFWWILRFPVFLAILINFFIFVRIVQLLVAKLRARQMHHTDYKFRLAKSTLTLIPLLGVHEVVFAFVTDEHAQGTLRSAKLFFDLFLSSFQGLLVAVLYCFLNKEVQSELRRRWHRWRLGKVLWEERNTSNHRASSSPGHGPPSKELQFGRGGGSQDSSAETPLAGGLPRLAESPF

| Ki [1] | Ki [2] | EC50 [3] | EC50 [4] | Ki [5] | EC50 [6] | SMILES | pKi [1] | pKi [2] | pEC50 [3] | pEC50 [4] | pKi [5] | pEC50 [6] |
| --- | --- | --- | --- | --- | --- | --- | --- | --- | --- | --- | --- | --- |
| 502 nM | 0.058 nM | 0.104 nM | 0.0254 nM | 3.69 nM | 0.547 nM | CC[C@H](C)[C@H](NC(=O)[C@H](CC(C)C)NC(=O)[C@H](Cc1ccc(O)cc1)NC(=O)[C@H](CCC(=O)O)NC(=O)[C@@H](NC(=O)[C@H](Cc1ccccc1)NC(=O)[C@H](C)NC(=O)C(C)(C)NC(=O)[C@H](CCC(N)=O)NC(=O)[C@H](C)NC(=O)[C@H](CCCCNC(=O)COCCOCCNC(=O)COCCOCCNC(=O)CC[C@H](NC(=O)CCCCCCCCCCCCCCCCC(=O)O)C(=O)O)NC(=O)[C@H](CCC(=O)O)NC(=O)[C@H](CC(=O)O)NC(=O)[C@H](CC(C)C)NC(=O)[C@](C)(CC(C)C)NC(=O)[C@@H](NC(=O)[C@H](CO)NC(=O)[C@H](Cc1ccc(O)cc1)NC(=O)[C@H](CC(=O)O)NC(=O)[C@H](CO)NC(=O)[C@@H](NC(=O)[C@H](Cc1ccccc1)NC(=O)[C@@H](NC(=O)CNC(=O)[C@H](CCC(=O)O)NC(=O)C(C)(C)NC(=O)[C@@H](N)Cc1ccc(O)cc1)[C@@H](C)O)[C@@H](C)O)[C@@H](C)CC)[C@@H](C)CC)C(=O)N[C@@H](CCC(=O)O)C(=O)NCC(=O)NCC(=O)N1CCC[C@H]1C(=O)N[C@@H](CO)C(=O)N[C@@H](CO)C(=O)NCC(N)=O [Example 303] (H-Y[Aib]EGTFTSDYSI[αMeL]LDEK([AEEA-AEEA-γGlu-C18 diacid])AQ[Aib]AFIEYLIEGGPSSG-NH2) | – | – | – | – | – | – |
| – | – | – | – | – | – | CC[C@H](C)[C@H](NC(=O)[C@H](CC(C)C)NC(=O)[C@H](Cc1ccc(O)cc1)NC(=O)[C@@H](CCC(=O)O)NC(=O)[C@@H](NC(=O)[C@H](Cc1ccccc1)NC(=O)[C@H](CCC(=O)O)NC(=O)C(C)(C)NC(=O)[C@H](CCC(N)=O)NC(=O)[C@H](C)NC(=O)[C@H](CCCCNC(=O)COCCOCCNC(=O)COCCOCCNC(=O)CC[C@H](NC(=O)CCCCCCCCCCCCCCCCCCC(=O)O)C(=O)O)NC(=O)[C@H](CCCN)NC(=O)[C@H](CC(=O)O)NC(=O)[C@H](CC(C)C)NC(=O)[C@](C)(CC(C)C)NC(=O)[C@@H](NC(=O)[C@H](CO)NC(=O)[C@H](Cc1ccc(O)cc1)NC(=O)[C@H](CC(=O)O)NC(=O)[C@H](CO)NC(=O)[C@@H](NC(=O)[C@](C)(Cc1ccccc1F)NC(=O)[C@@H](NC(=O)CNC(=O)[C@H](CCC(=O)O)NC(=O)C(C)(C)NC(=O)[C@@H](N)Cc1ccc(O)cc1)[C@@H](C)O)[C@@H](C)O)[C@@H](C)CC)[C@@H](C)CC)C(=O)N[C@@H](CCC(=O)O)C(=O)NCC(=O)NCC(=O)N1CCC[C@H]1C(=O)N[C@@H](CO)C(=O)N[C@@H](CO)C(=O)NCC(=O)N[C@@H](C)C(=O)N1CCC[C@H]1C(=O)N1CCC[C@H]1C(=O)N1CCC[C@H]1C(=O)N[C@@H](CO)C(N)=O [Example 3] | 6.62 | 10.34 | 10.47 | 10.39 | 8.65 | 9.38 |
| 44.4 nM | 0.0273 nM | 0.0441 nM | 0.0346 nM | 0.875 nM | 0.435 nM | CC[C@H](C)[C@H](NC(=O)[C@H](CC(C)C)NC(=O)[C@H](Cc1ccc(O)cc1)NC(=O)[C@H](CCC(=O)O)NC(=O)[C@@H](NC(=O)[C@H](Cc1ccccc1)NC(=O)[C@H](C)NC(=O)C(C)(C)NC(=O)[C@H](CCC(N)=O)NC(=O)[C@H](C)NC(=O)[C@H](CCCCNC(=O)COCCOCCNC(=O)COCCOCCNC(=O)CC[C@H](NC(=O)CCCCCCCCCCCCCCCCC(=O)O)C(=O)O)NC(=O)[C@H](CCCCN)NC(=O)[C@H](CC(=O)O)NC(=O)[C@H](CC(C)C)NC(=O)[C@H](CC(C)C)NC(=O)[C@@H](NC(=O)[C@H](CO)NC(=O)[C@H](Cc1ccc(O)cc1)NC(=O)[C@H](CC(=O)O)NC(=O)[C@H](CO)NC(=O)[C@@H](NC(=O)[C@](C)(Cc1ccccc1)NC(=O)[C@@H](NC(=O)CNC(=O)[C@H](CCC(=O)O)NC(=O)C(C)(C)NC(=O)[C@@H](N)Cc1ccc(O)cc1)[C@@H](C)O)[C@@H](C)O)[C@@H](C)CC)[C@@H](C)CC)C(=O)N[C@@H](CCC(=O)O)C(=O)NCC(=O)NCC(=O)N1CCC[C@H]1C(=O)N[C@@H](CO)C(=O)N[C@@H](CO)C(=O)NCC(N)=O [Example 301] (H-Y[Aib]EGT[αMeF]TSDYSILLDKK([AEEA-AEEA-γGlu-C18 diacid])AQ[Aib]AFIEYLIEGGPSSG-NH2) | – | – | – | – | – | – |
